Measured values: patent US10604512B2, “3-(1H-indol-2-yl)-1H-indazoles and therapeutic uses thereof” (Samumed, LLC, priority 2015, dated 2020)

Columns and labels:
Assay type in all cases: cell-based
SW480 colon cancer cells = assay: Cell viability assay (CellTiter-Blue) in SW480 colon cancer cells; settings: Homo sapiens, 96 h, four days, CellTiter-Blue
Method in brief: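 SW480 colon cancer cells (~2×10^3/well) exposed to 8-point 1:3 dilutions from 10 μM to 0.0045 μM for four days at 37 °C/5% CO2. Viability read by resazurin (CellTiter-Blue) fluorescence after ~3 h, Ex 560/Em 590 nm. EC50 from non-linear regression; percent inhibition at 10 μM given when EC50 >10 μM.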

[1] = tested on: Wnt activity (Sp5-Luc reporter, TCF/LEF binding sites) in SW480 colon carcinoma cells; assay: Screening assay for Wnt activity: Sp5-Luc reporter gene assay in stably transduced SW480 colon carcinoma cells; settings: Homo sapiens, overnight incubation, 10-point curve from 10 μM
Method in brief: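 SW480 cells stably transduced with a luciferase reporter driven by an Sp5 promoter of eight TCF/LEF sites were plated at 4,000 cells/well in 1% FBS medium. They were exposed overnight at 37° C to a 10-point 1:3 dilution series from 10 μM (0.1% DMSO). Luminescence was normalized to DMSO for four-parameter EC50, or percent inhibition at 10 μM.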

IL-6 = assay: Inhibition of IL-6 in LPS-stimulated THP-1 human monocyte cells (HTRF); settings: IL-6 inhibition, LPS-stimulated THP-1 cells, HTRF
Method in brief: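 THP-1 cells serum-reduced (1% FBS, 24 h), then 5000 cells/well preincubated 2 h with compound (10-point 1:3 series from 10 μM, 0.1% DMSO) before 500 ng/mL LPS for 22 h at 37 °C. Secreted IL-6 quantified by HTRF 665/620 ratio; DMSO-normalised duplicates fitted to four-parameter EC50; above 10 μM, % inhibition at 10 μM given.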

[2] = tested on: Primary human fibroblasts derived from IPF patients (LL29 cells) treated with TGF-β1; assay: Inhibition of the fibrotic process: αSMA staining in TGF-β1-treated primary human fibroblasts from IPF patients (LL29 cells); settings: Fibroblast, 96 h, % αSMA-positive LL29 cells, TGF-β1 20 ng/mL, 4 days
Method in brief: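 LL29 IPF-patient fibroblasts in 1% FBS stimulated with TGF-β1 (20 ng/mL) and compound (10 μM–1.87 nM, 0.1% DMSO) for 4 days at 37 °C. SYTOX-positive cells excluded; % αSMA-positive cells imaged, normalized to TGF-β1/DMSO wells; EC50 by nonlinear regression, else % inhibition at 10 μM.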

[3] = tested on: primary human mesenchymal stem cells (hMSCs); assay: Induction of chondrogenesis in primary human mesenchymal stem cells (nodule imaging, Rhodamine B / Nile Red)
Experimental: Representative compounds were screened using primary human mesenchymal stem cells (hMSCs) to determine their ability to induce chondrogenesis (process by which cartilage is developed).
Primary human mesenchymal stem cells (hMSCs) were purchased from Lonza (Walkersville, Md.) and expanded in Mesenchymal Stem Cell Growth Media (Lonza). Cells between passage 3 and 6 were used for the experiments.
Each compound was dissolved in DMSO as a 10 mM stock and used to prepare compound source plates. For the 96 well assay, serial dilution (1:3, 6-point dose-response curves from 2700 nM to 10 nM) and compound transfer was performed using the ECHO 550 (Labcyte, Sunnyvale, Calif.) into 96-well clear bottom assay plates (Greiner Bio-One) with appropriate DMSO backfill for a final DMSO concentration of 0.03%. hMSCs were plated at 20,000 cells/well in 250 μL/well Incomplete Chondrogenic Induction Medium (Lonza; DMEM, dexamethasone, ascorbate, insulin-transferrin-selenium [ITS supplement], gentamycin-amphotericin [GA-1000], sodium pyruvate, proline and L-glutamine). TGF-β3 (10 ng/mL) was used as a positive control for differentiation while negative control wells were treated with 75 nL DMSO for normalization and calculating EC50 values. For the 384 well assay, serial dilution (1:3, 8-point dose-response curves from 5000 nM to 2.2 nM) and compound transfer was performed using the ECHO 550 (Labcyte, Sunnyvale, Calif.) into 384-well clear bottom assay plates (Greiner Bio-One) with appropriate DMSO backfill for a final DMSO concentration of 0.03%. hMSCs were plated at 8,000 cells/well in 80 μL/well Incomplete Chondrogenic Induction Medium (Lonza; DMEM, dexamethasone, ascorbate, insulin-transferrin-selenium [ITS supplement], gentamycin-amphotericin [GA-1000], sodium pyruvate, proline and L-glutamine). TGF-β3 (10 ng/mL) was used as a positive control for differentiation while negative control wells were treated with 25 nL DMSO for normalization and calculating EC50 values. Cells were incubated at 37° C. and 5% CO2 for 6 days. To image chondrogenic nodules, the cells were fixed using 4% formaldehyde (Electron Microscopy Sciences), and stained with 2 μg/mL Rhodamine B (Sigma-Aldrich) and 20 μM Nile Red (Sigma-Aldrich) [Johnson K., et. al, A Stem CellBased Approach to Cartilage Repair, Science, (2012), 336(6082), 717-721]. The nodules imaged (25 images per well for 96 well plates and 9 images per well for 384 well plates at 10× magnification) by excitation at 531 nm and emission at 625 nm and quantified using the CellInsight CX5 (Thermo Scientific). Area of nodules in each well was normalized to the average of 3 DMSO treated wells on the same plate using Excel (Microsoft Inc.). The normalized averages (fold change over DMSO) of 2 or 3 replicate wells for each compound concentration were calculated. Due to solubility limitations of some of the compounds, curve fitting was incomplete leading to inaccurate EC50 determinations.
Using TGF-β3 as a positive control, the concentration of representative compounds required to induce 50% levels of chondrogenesis is reported. In addition, the maximum activity of each compound and the respective dose that each compound reached maximum chondrogenesis activity is reported.

| SMILES | EC50 (SW480 colon cancer cells) | EC50 [1] | EC50 (IL-6) | EC50 ([3]; concentration required to induce 50% levels of chondrogenesis vs TGF-β3 positive control, read-out: Conc (nM) of 50% TGF-β3 activity) | EC50 [2] | Emax ([3]; maximum chondrogenesis activity relative to TGF-β3 (10 ng/mL) positive control, read-out: Max. Activity as % TGF-β3 activity) |
| --- | --- | --- | --- | --- | --- | --- |
| CN(C)CCOc1cncc(-c2ccc3[nH]nc(-c4cc5c(-c6ccoc6)cccc5[nH]4)c3c2)c1 [Compound 719, 2-((5-(3-(4-(Furan-3-yl)-1H-indol-2-yl)-1H-indazol-5-yl)pyridin-3-yl)oxy)-N,N-dimethylethan-1-amine] | 1370 nM | 680 nM | 1710 nM |  | 1950 nM |  |
| COc1cncc(-c2ccc3[nH]nc(-c4cc5c(-c6ccoc6)cccc5[nH]4)c3c2)c1 [Compound 720, 3-(4-(Furan-3-yl)-1H-indol-2-yl)-5-(5-methoxypyridin-3-yl)-1H-indazole] | 1400 nM | 588 nM | 329 nM | 10 nM |  | 151% |
| c1cc(-c2ccoc2)c2cc(-c3n[nH]c4ccc(-c5cnccn5)cc34)[nH]c2c1 [Compound 724, 3-(4-(Furan-3-yl)-1H-indol-2-yl)-5-(pyrazin-2-yl)-1H-indazole] | 3510 nM | 791 nM | 31 nM |  | 96 nM |  |
| CS(=O)(=O)NCc1cc(F)cc(-c2cccc3[nH]c(-c4n[nH]c5ccc(-c6cncc(OCc7ccccc7)c6)cc45)cc23)c1 [Compound 802, N-(3-(2-(5-(5-(Benzyloxy)pyridin-3-yl)-1H-indazol-3-yl)-1H-indol-4-yl)-5-fluorobenzyl)methanesulfonamide] | 461 nM | 189 nM | 802 nM |  | 400 nM |  |

More lines, main results first:

| EC50 (SW480 colon cancer cells) | EC50 [1] | EC50 (IL-6) | EC50 ([3]; concentration required to induce 50% levels of chondrogenesis vs TGF-β3 positive control, read-out: Conc (nM) of 50% TGF-β3 activity) | SMILES | EC50 [2] | Emax ([3]; maximum chondrogenesis activity relative to TGF-β3 (10 ng/mL) positive control, read-out: Max. Activity as % TGF-β3 activity) |
| --- | --- | --- | --- | --- | --- | --- |
| 89 nM | 69 nM | 6 nM |  | CN(C)CCNc1cc(F)cc(-c2cccc3[nH]c(-c4n[nH]c5ccc(-c6cnn(C)c6)cc45)cc23)c1 [Compound 808, N^1-(3-Fluoro-5-(2-(5-(1-methyl-1H-pyrazol-4-yl)-1H-indazol-3-yl)-1H-indol-4-yl)phenyl)-N^2,N^2-dimethylethane-1,2-diamine] | 88 nM |  |
| 458 nM | 224 nM | 77 nM |  | CN(C)CCNc1cc(F)cc(-c2cccc3[nH]c(-c4n[nH]c5ccc(-c6cncc(N7CC(N)C7)n6)cc45)cc23)c1 [Compound 810, N^1-(3-(2-(5-(6-(3-Aminoazetidin-1-yl)pyrazin-2-yl)-1H-indazol-3-yl)-1H-indol-4-yl)-5-fluorophenyl)-N^2,N^2-dimethylethane-1,2-diamine] | 653 nM |  |
